Test results as given in patent US11882846B2, “Use of kefir peptide for improving or treating depressive behaviors and related diseases” (National Chung Hsing University, priority 2021, dated 2024).
Counter-ions that a name gives are not always drawn.

Assays:
TrkB = TrkB and p-TrkB protein in hippocampal tissues, western blot; type: in vivo, mice; details: oral treatment for 8 days, compared with first group (distilled water)
Procedure: (§1) Take 5-week-old CD-1 mice, provide standard laboratory animal feed (Altromin, Germany) and distilled water (dH2O), and keep them for 12 hours at 22-24° C. for light/dark cycles. Before starting the test, each group of mice are raised in an experimental animal room for 1 week to adapt to the environment, and then the mice are randomly divided into 4 groups, and the mice in each of the groups are treated and raised for 8 days (referred to as the first day of rearing to the eighth day of rearing) according to the following conditions: • the first group: take distilled water orally; • the second group: take 150 mg/kg milk powder orally; • the third group: take 150 mg/kg kefir fermentation product orally; and • the fourth group: take 10 mg/kg drug trazodone hydrochloride orally.
(§2) After the test, the mice in each of the groups are anesthetized and their hippocampal tissues are isolated, and frozen and preserved for use in subsequent examples.
(§3) Expressions of protein and mRNA in the hippocampal tissues of the mice in each of the groups in Example 2 are assessed by quantitative RT-PCR method and western blot analysis, and the results are shown in FIG. 6 and FIG. 7, respectively.

CD-1 mice [1] = test: Elevated plus maze test (EPMT); type: in vivo; details: 7th day of rearing, 6 hours after oral treatment, 5 minutes observed; compared with first group (distilled water); 150 mg/kg milk powder or kefir fermentation product, 10 mg/kg trazodone hydrochloride
Procedure: as §1
The mice in each of the groups of Example 1 are treated for 6 hours according to the above conditions on the 7th day of rearing, and then an elevated plus maze test is performed, and paths of the mice in each of the groups within 5 minutes are observed with a camera. The results are shown in FIGS. 2A to 2D, and the time of the mice in each of the groups spent on open arms or closed arms in the elevated plus maze is analyzed, and the results are shown in FIG. 2E to FIG. 2H.

Erk1/2 = Erk1/2 and p-Erk1/2 protein in hippocampal tissues, western blot; type: in vivo, mice; details: oral treatment for 8 days, compared with first group (distilled water)
Procedure: as §1, §2, §3

[2] = system: BDNF (brain-derived neurotrophic factor); test: BDNF mRNA expression in hippocampal tissues, quantitative RT-PCR; type: in vivo, mice; details: oral treatment for 8 days; compared with first group (distilled water)
Procedure: as §1, §2, §3

CD-1 mice [3] = test: Open field test (OFT); type: in vivo; details: 8th day of rearing, 30 minutes after oral treatment, 5 minutes in open field; compared with first group (distilled water)
Procedure: as §1
The mice in each of the groups in Example 2 are treated according to the above conditions for 30 minutes on the 8th day of rearing, and then an open field test is carried out. Specifically, the mice in each of the groups are first placed in an open field (45×45×40 cm) for 5 minutes, their travel paths and travel speeds are observed respectively, and the time it takes to reach the centers and the time spent at a fixed position are calculated.

CD-1 mice [4] = test: Forced swimming test (FST); type: in vivo; details: 7th day of rearing, 30 minutes after oral treatment, testing time 6 minutes; kefir fermentation product 150 mg/kg, trazodone hydrochloride 10 mg/kg; average±standard deviation
Procedure: as §1
The mice in each of the groups of Example 2 are treated for 30 minutes according to the above conditions on the 7th day of rearing, and then a swimming test is carried out, testing time is 6 minutes. Movement and immobility time are measured and analyzed with a camera. The results are shown in FIG. 4, wherein the immobility time is a period of time without active movement but only floating in the water; the movement time is a period of time with active movement or circular movement.

CD-1 mice [5] = test: Tail suspension test (TST); type: in vivo; details: 7th day, 30 minutes after oral treatment, 6 minute test, measured in the last 4 minutes; kefir fermentation product 150 mg/kg, peptides 10 mg/kg; average±standard deviation
Procedure: Refer to the steps of Example 2, the CD-1 mice are randomly divided into five groups and raised under the following conditions: • the first group: take distilled water orally; • the second group: take 150 mg/kg kefir fermentation product orally; • the third group: take the peptide 1 (10 mg/kg) disclosed in Example 1 orally, and the amino acid sequence is SEQ ID No: 1; • the fourth group: take the peptide 2 (10 mg/kg) disclosed in Example 1 orally, and the amino acid sequence is SEQ ID No: 2; and • the fifth group 5: take the peptide 3 (10 mg/kg) disclosed in Example 1 orally, and the amino acid sequence is SEQ ID No: 3.
When the mice in each of the groups are raised to the 7th day, after 30 minutes of treatment according to the following conditions, a tail suspension test is carried out for 6 minutes, and the immobility time is measured in the last 4 minutes. The results are shown in FIG. 5, wherein the immobility time refers to a period of time in which the mice are suspended and completely still.

Molecule	expression level of total TrkB protein in hippocampal tissues (TrkB)	phosphorylation status p-TrkB/TrkB in hippocampal tissues (TrkB; P<0.05)	paths of the mice in the elevated plus maze (movement to the open arms) (CD-1 mice [1])	expression level of total Erk1/2 protein in hippocampal tissues (Erk1/2)	phosphorylation status p-Erk1/2/Erk1/2 in hippocampal tissues (Erk1/2; P<0.05)	expression of BDNF mRNA in hippocampal tissues [2]	movement distance in an open field (CD-1 mice [3])	movement speed in an open field (CD-1 mice [3])	time spent at a fixed position in an open field (CD-1 mice [3])	immobility time in swimming test (CD-1 mice [4])	movement time in swimming test (CD-1 mice [4])	immobility time in tail suspension test (CD-1 mice [5])	movement time in tail suspension test (CD-1 mice [5])
O=c1n(CCCN2CCN(c3cccc(Cl)c3)CC2)nc2ccccn12 [trazodone hydrochloride]	have not change significantly	increases significantly	move to the open arms	have not change significantly	increases significantly	significantly improved	move a longer distance	move faster	spend less time at a certain fixed position	0.9 ± 0.2 min	3.1 ± 0.3 min	–	–
peptide 2: YQEPVLGPVRGPFPI, SEQ ID No: 2; the kefir peptide of the invention, isolated from kefir fermentation product (artificiall obtained)	–	–	–	–	–	–	–	–	–	–	–	1.0 ± 0.2 min	3.0 ± 0.2 min
peptide 3: KLHLPLPLVQSWM, SEQ ID No: 3; peptide isolated from kefir fermentation product, can also be chemically synthesized (artificiall obtained)	–	–	–	–	–	–	–	–	–	–	–	1.8 ± 0.3 min	2.2 ± 0.3 min
